Laboratory results taken from PubChem BioAssay (NCI).
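Test compounds were applied to cells in 96-well plates for 48 hours at 5 doses. Here, GI50 denotes the concentration required for 50% inhibition of growth. TGI denotes the concentration required for complete inhibition of growth.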

What was measured:
Test in all cases: NCI anticancer screen, dose series, 48 h
ACHN renal = test system: ACHN renal
HCT-15 colon = test system: HCT-15 colon
HOP-62 NSCLC = test system: HOP-62 NSCLC
CCRF-CEM leukemia = test system: CCRF-CEM leukemia
CAKI-1 renal = test system: CAKI-1 renal
K-562 leukemia = test system: K-562 leukemia
OVCAR-5 ovarian = test system: OVCAR-5 ovarian
UO-31 renal = test system: UO-31 renal
HCC-2998 colon = test system: HCC-2998 colon
SR leukemia = test system: SR leukemia

SMILES | TGI (ACHN renal) [µM] | TGI (HCT-15 colon) [µM] | TGI (HOP-62 NSCLC) [µM] | TGI (CCRF-CEM leukemia) [µM] | TGI (CAKI-1 renal) [µM] | TGI (K-562 leukemia) [µM] | TGI (OVCAR-5 ovarian) [µM] | TGI (UO-31 renal) [µM] | TGI (HCC-2998 colon) [µM] | TGI (SR leukemia) [µM] | GI50 (SR leukemia) [µM]
CC1CC(=O)Nc2ccccc2N1C(=O)C1CC1 (stereo unspecified) | > 100 | > 100 | > 100 | > 100 | > 100 | > 100 | > 100 | > 100 | > 100 |  | 
Cc1cccc(-c2nc(-c3cnccn3)n(Cc3ccccc3)n2)c1 |  | > 100 | > 100 | > 100 |  | > 100 | > 100 | > 100 | > 100 | > 100 | 
Cc1ccc(S(=O)(=O)Nn2c(S)c(C#N)c(-c3ccc(Cl)cc3)c(C#N)c2=O)cc1 | > 100 | 71.1 |  | > 100 | > 100 | > 100 | > 100 | 57.5 | > 100 | > 100 | 
CC(=O)OCC1OC(O[C@H]2C=C[C@@H](C(=O)OCc3ccccc3)n3c(=O)n(-c4ccccc4)c(=O)n32)C(OC(C)=O)C(OC(C)=O)C1OC(C)=O (stereo partly specified) | 3.09 | 2.44 |  | > 19.9 | 2.98 | 8.72 | 4.75 | 2.93 | 3.22 | 5.92 | 
COc1ccc(-c2cc(=O)c3cc(O)ccc3o2)c(OC)c1OC | 93.6 | > 100 | > 100 | 70.6 | > 100 | > 100 | 81.4 |  | > 100 | 77.6 | 
C=C(C)[C@H]1CC(=O)[C@@]2(C)C[C@H]3O[C@]3(C)CC/C=C(\C)CC[C@H]12 | > 100 | > 100 | > 100 | > 100 | 73 | 47.2 | > 100 | > 100 | > 100 |  | 
NC(CSCSCC(N)C(=O)O)C(=O)O (stereo unspecified) |  | > 225 | > 225 | > 71.2 | > 225 | > 225 | > 225 | > 225 | > 225 |  | 
CC(C)CC1N=C(OCc2ccccc2)OC1=O (stereo unspecified) | > 100 | > 100 | > 100 | > 100 | > 100 | > 100 | > 100 | > 100 |  |  | 
CN(C)CC(C)(C)CN1c2ccccc2Sc2ccccc21 | 28.3 | > 100 | 25.5 |  | 24.7 | 22.8 | 29.9 |  |  | 23.4 | 
O=C(CC(C(=O)c1cccs1)c1ccc2c(c1)OCO2)c1ccccc1 (stereo unspecified) | > 100 | > 100 | > 100 |  | > 100 |  |  | > 100 | > 100 | > 100 | 
C/C(CCN(C)C)=N\OC(=O)c1ccccc1 | > 100 |  | > 100 | > 100 | > 100 | > 100 | > 100 | > 100 | > 100 | > 100 | 
O=C(Nc1ccc(Cl)cc1)c1cc(S(=O)(=O)N2CCNNC2=O)c(S)cc1Cl | > 100 | > 100 |  | > 100 | > 100 | > 100 | > 100 | > 100 | > 100 | > 100 | 
O=C1c2ccccc2C(=O)N1NC1=NCCN1 | > 100 | > 100 | > 100 | > 100 | > 100 | > 100 | > 100 |  | > 100 | > 100 | 
C[C@@H]1CC[C@@]2(C)[C@H](C)/C(=C\COC(=O)/C=C/c3ccc(O)c(O)c3)CC[C@@]12C | 16.6 | 16.1 | 28.8 |  | 15 | 17.8 | 35 | 28 | 20 | 6.93 | 
CCCCCCCCCCCCCCCC(=O)OC1C(O)C(O)C(O)C(O)C12CO2 (stereo unspecified) | > 100 | 63.5 | > 100 | 41.1 | 29.8 | 67.8 | > 100 | > 100 | > 100 |  | 
CCOc1cc2c(cc1O)C(=O)C[C@@H]1[C@@H]2CC[C@]2(C)[C@@H](O)CC[C@@H]12 | > 100 | 29.3 | > 100 | > 100 | > 100 | 2.27 | > 100 | > 100 | 4.56 |  | 
CN1CCc2c(sc3ncn(Nc4ccc(F)cc4)c(=N)c23)C1 | > 100 | > 100 | > 100 | > 100 | > 100 | > 100 | > 100 |  |  | > 100 | 
CCN(CC)CCSc1c(C(C)=O)c(=O)n(-c2ccccc2)c(=S)n1-c1ccccc1 | 10.1 | 8.86 | 45.3 | > 100 | 24 | > 43.7 | 53.2 | 3.86 | 24.5 |  | 
COc1ccc(/C=C/C(=O)CCN2CCN(CCC(=O)/C=C/c3ccc(OC)cc3)CC2)cc1 | 27.2 | 22.3 | 49.7 |  | 26.3 | 37.9 | 35.3 | 27.7 | 24.7 |  | 
COC(=O)c1c2c(cc3c1CC1(C3)Cc3cc4c(c(C(=O)OC)c3C1)CCC4)CCC2 | > 100 |  | > 100 | > 100 |  | > 100 | > 100 | 28.4 | > 100 | > 100 | 
CC(C)=CCc1cc(/C=C/C(=O)O)cc(CC=C(C)C)c1O | > 100 | > 100 | > 100 | > 100 | > 100 | > 100 | > 100 | > 100 |  | > 100 | 
C=C(C)COc1cc(NC(=S)OC(C)C)ccc1Cl | 31.1 | 30.6 |  | 39.2 | 28.7 | 38.7 | 29.4 | 26.9 | 29.5 |  | 
O=C1CN(c2ccccc2)C(=O)CN1NCNN1CC(=O)N(c2ccccc2)CC1=O | > 100 | > 100 | > 100 | > 100 | > 100 |  | > 100 | > 100 | > 100 | > 100 | 
Cc1cc(N=Cc2c(CO)cnc(C)c2O)c(N=Cc2c(CO)cnc(C)c2O)cc1C | > 100 | > 100 | > 100 | 80 | > 100 | > 100 | > 100 |  | > 100 | > 100 | 41.2
